Laboratory results taken from US20240409585A1, “MACROCYCLIC IMMUNOMODULATORS” (priority 2021, published 2024).
Bridge positions count the residues as written; N and C are the ends. Square brackets hold non-standard residues; d marks the D form. Peptide text beside a SMILES is read from it. * marks the point of attachment. ξ: configuration not given here. Phe(3-CF3) = N[C@@H](Cc1cccc(C(F)(F)F)c1)C(=O)O; Phe(4-COOH) = N[C@@H](Cc1ccc(C(=O)O)cc1)C(=O)O; Bip = N[C@@H](Cc1ccc(-c2ccccc2)cc1)C(=O)O; Phe(3-Cl) = N[C@@H](Cc1cccc(Cl)c1)C(=O)O; Phe(3-Me) = Cc1cccc(C[C@H](N)C(=O)O)c1; Val(3-OH) = CC(C)(O)[C@H](N)C(=O)O; 4Pal = N[C@@H](Cc1ccncc1)C(=O)O; Cha = N[C@@H](CC1CCCCC1)C(=O)O; Ile(3ξ) = CCC(C)[C@H](N)C(=O)O; AllylGly = C=CC[C@H](N)C(=O)O; Thr(3ξ) = CC(O)[C@H](N)C(=O)O; Ala(CN) = N#CC[C@H](N)C(=O)O; Hpra = C#CCC[C@H](N)C(=O)O; Carboxymethyl = O=C(O)C*; NMeA = CN[C@@H](C)C(=O)O; Nle = CCCC[C@H](N)C(=O)O; Orn = NCCC[C@H](N)C(=O)O; Dab = NCC[C@H](N)C(=O)O; Dap = NC[C@H](N)C(=O)O; ξC = NC(CS)C(=O)O

Target: T1, PE-labeled human PD-L1-Ig binding to Jurkat cell line over-expressing human PD-1 (Jurkat-PD-1) (Homo sapiens, UniProt Q15116)
T1 construct: expressed in transfected cells; host or cells: Jurkat
Assay: Jurkat-PD-1 Cell Binding High-Content Screening Assay (CBA): Method 1
Conditions: Jurkat-hPD-1 cells, PE-labeled PD-L1-Ig 20 nM final; read-out: Jurkat HPDL1 PD1 IC50 (uM) (Method 1)

T1 sequence (Q15116 25-288): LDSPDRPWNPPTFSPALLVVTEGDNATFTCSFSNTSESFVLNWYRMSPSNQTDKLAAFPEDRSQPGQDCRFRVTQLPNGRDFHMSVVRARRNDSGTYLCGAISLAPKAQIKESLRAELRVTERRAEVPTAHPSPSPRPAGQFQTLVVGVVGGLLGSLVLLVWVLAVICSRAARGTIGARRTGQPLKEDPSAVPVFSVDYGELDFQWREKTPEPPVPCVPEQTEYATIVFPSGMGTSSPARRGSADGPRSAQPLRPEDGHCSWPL

IC50 | SMILES
0.01 µM | C#CCC[C@H](NC(=O)[C@H](CCCN)NC(=O)[C@@H]1CSCC(=O)N[C@@H](Cc2ccncc2)C(=O)N[C@@H](Cc2ccc(OCC(=O)O)cc2)C(=O)N[C@@H](CC(=O)O)C(=O)N[C@@H](Cc2cccc(C)c2)C(=O)N[C@@H](C(C)C)C(=O)N[C@@H](Cc2ccc(-c3ccccc3)cc2)C(=O)N[C@@H](C(C)C)C(=O)N(C)[C@@H](C)C(=O)N[C@H](CC(C)C)C(=O)N[C@@H](CCN)C(=O)N[C@@H](CC2CCCCC2)C(=O)N[C@@H](C(C)C)C(=O)N[C@@H]([C@@H](C)O)C(=O)N1)C(N)=O [Compound 1878] ({CH2CO}-[4Pal]Y(Carboxymethyl)D[Phe(3-Me)]V[Bip]V[NMeA][dL][Dab][Cha]VTC[Orn][Hpra]-NH2; thioether N-14)
0.04 µM | CC(C)C[C@@H]1NC(=O)[C@H](Cc2c[nH]c3ccccc23)NC(=O)[C@H](CC(=O)O)NC(=O)[C@H](Cc2ccncc2)NC(=O)[C@H](Cc2ccc(OCC(=O)O)cc2)NC(=O)CSC[C@@H](C(=O)N[C@H](CC(N)=O)C(N)=O)NC(=O)[C@H]([C@@H](C)O)NC(=O)[C@H](C(C)C)NC(=O)[C@H](CC2CCCCC2)NC(=O)[C@H](CCN)NC(=O)[C@@H](CC(C)C)NC(=O)[C@H](C)N(C)C(=O)[C@H](C(C)C)NC(=O)[C@H](Cc2ccc(-c3ccccc3)cc2)NC1=O [Compound 1903] ({CH2CO}-Y(Carboxymethyl)[4Pal]DWL[Bip]V[NMeA][dL][Dab][Cha]VTC[dN]-NH2; thioether N-14)
0.02 µM | CCC(C)[C@@H]1NC(=O)[C@H](Cc2ccc(-c3ccccc3)cc2)NC(=O)[C@H](C(C)C)NC(=O)[C@H](Cc2c[nH]c3ccccc23)NC(=O)[C@H](CC(=O)O)NC(=O)[C@H](Cc2ccc(OCC(=O)O)cc2)NC(=O)[C@H](C(C)O)NC(=O)CSC[C@@H](C(=O)N[C@H](CC(N)=O)C(N)=O)NC(=O)[C@H](CO)NC(=O)[C@H](C(C)(C)O)NC(=O)[C@H](CC2CCCCC2)NC(=O)[C@H](CCN)NC(=O)[C@@H](CC(C)C)NC(=O)[C@H](C)N(C)C1=O (stereo partly drawn) [Compound 2141] ({CH2CO}-[Thr(3ξ)]Y(Carboxymethyl)DWV[Bip][Ile(3ξ)][NMeA][dL][Dab][Cha][Val(3-OH)]SC[dN]-NH2; thioether N-14)
0.01 µM | CCC(C)[C@@H]1NC(=O)[C@H](Cc2ccc(-c3ccccc3)cc2)NC(=O)[C@H](C(C)C)NC(=O)[C@H](Cc2c[nH]c3ccccc23)NC(=O)[C@H](CC(=O)O)NC(=O)[C@H](Cc2ccc(O)cc2)NC(=O)[C@H](CC#N)NC(=O)CSCC(C(=O)NCC(=O)O)NC(=O)[C@H](C(C)O)NC(=O)[C@H](C(C)C)NC(=O)[C@H](CC2CCCCC2)NC(=O)[C@H](CCN)NC(=O)[C@@H](CC(C)C)NC(=O)[C@H](C)N(C)C1=O (stereo partly drawn) [Compound 2218] ({CH2CO}-[Ala(CN)]YDWV[Bip][Ile(3ξ)][NMeA][dL][Dab][Cha]V[Thr(3ξ)][ξC]G-OH; thioether N-14)
0.31 µM | CCC(C)[C@@H]1NC(=O)[C@H](Cc2ccc(-c3ccccc3)cc2)NC(=O)[C@H](C(C)C)NC(=O)[C@H](Cc2cccc(C)c2)NC(=O)[C@H](CC(=O)O)NC(=O)[C@H](Cc2ccc(OCC(=O)O)cc2)NC(=O)[C@H](Cc2ccncc2)NC(=O)CSC[C@@H](C(=O)N[C@@H](CO)C(=O)O)NC(=O)[C@H](CO)NC(=O)[C@H](C(C)C)NC(=O)[C@H](CC2CCCCC2)NC(=O)[C@H](CCN)NC(=O)[C@@H](CC(C)C)NC(=O)[C@H](C)N(C)C1=O (stereo partly drawn) [Compound 2236] ({CH2CO}-[4Pal]Y(Carboxymethyl)D[Phe(3-Me)]V[Bip][Ile(3ξ)][NMeA][dL][Dab][Cha]VSCS-OH; thioether N-14)
0.03 µM | C=CC[C@@H]1NC(=O)[C@H](CC(C)C)NC(=O)[C@H](CC(N)=O)NC(=O)[C@@H](CC(C)C)NC(=O)[C@H](C)N(C)C(=O)[C@H](C(C)C)NC(=O)[C@H](Cc2ccc(-c3ccccc3)cc2)NC(=O)[C@H](CC=C)NC(=O)[C@H](Cc2cccc(C)c2)NC(=O)[C@H](CC(=O)O)NC(=O)[C@H](Cc2ccncc2)NC(=O)[C@H](Cc2ccc(OCC(=O)O)cc2)NC(=O)CSCC(C(=O)NCC(N)=O)NC(=O)[C@H](CO)NC1=O (stereo partly drawn) [Compound 1882] ({CH2CO}-Y(Carboxymethyl)[4Pal]D[Phe(3-Me)][AllylGly][Bip]V[NMeA][dL]NL[AllylGly]S[ξC]G-NH2; thioether N-14)

Further lines, the compound ahead of its results:

SMILES | IC50
CC(C)C[C@@H]1NC(=O)[C@H](CCCNC(=N)N)NC(=O)[C@H](Cc2cccc(Cl)c2)NC(=O)[C@H](C)N(C)C(=O)[C@H](CCCNC(=N)N)NC(=O)[C@H](Cc2ccc(-c3ccccc3)cc2)NC(=O)[C@H](C(C)C)NC(=O)[C@H](Cc2c[nH]c3ccccc23)NC(=O)[C@H](CC(=O)O)NC(=O)[C@H](Cc2ccc(O)cc2)NC(=O)[C@H](Cc2ccccc2)NC(=O)CSC[C@@H](C(=O)NCC(N)=O)NC(=O)[C@H](CO)NC(=O)[C@H](C(C)C)NC1=O [Compound 1014] ({CH2CO}-FYDWV[Bip]R[NMeA][Phe(3-Cl)]RLVSCG-NH2; thioether N-14) | 0.2 µM
Cc1cccc(C[C@@H]2NC(=O)[C@H](CC(=O)O)NC(=O)[C@H](Cc3ccc(OCC(=O)O)cc3)NC(=O)[C@H](CN)NC(=O)CSC[C@@H](C(N)=O)NC(=O)[C@H]([C@@H](C)O)NC(=O)[C@H](C(C)C)NC(=O)[C@H](CC3CCCCC3)NC(=O)[C@H](CCN)NC(=O)[C@@H](CC(C)C)NC(=O)[C@H](C)N(C)C(=O)[C@H](Cc3ccc(OCC(=O)O)cc3)NC(=O)[C@H](Cc3ccc(-c4ccccc4)cc3)NC(=O)[C@H](Cc3ccc(OCC(=O)O)cc3)NC2=O)c1 [Compound 1650] ({CH2CO}-[Dap]Y(Carboxymethyl)D[Phe(3-Me)]Y(Carboxymethyl)[Bip]Y(Carboxymethyl)[NMeA][dL][Dab][Cha]VTC-NH2; thioether N-14) | 0.08 µM
CC[C@H](C)[C@@H]1NC(=O)[C@H](Cc2ccc(-c3ccccc3)cc2)NC(=O)[C@H](C(C)C)NC(=O)[C@H](Cc2c[nH]c3ccccc23)NC(=O)[C@H](CC(=O)O)NC(=O)[C@H](Cc2ccc(O)cc2)NC(=O)[C@H](Cc2ccccc2)NC(=O)CSC[C@@H](C(=O)N[C@@H](C)C(N)=O)NC(=O)[C@H]([C@@H](C)O)NC(=O)[C@H](C(C)C)NC(=O)[C@H](CC2CCCCC2)NC(=O)[C@H](CCCNC(=N)N)NC(=O)[C@@H](CC(C)C)NC(=O)[C@H](C)N(C)C1=O [Compound 1494] ({CH2CO}-FYDWV[Bip]I[NMeA][dL]R[Cha]VTCA-NH2; thioether N-14) | 0.05 µM
CCCC[C@@H]1NC(=O)[C@H](CCCNC(=N)N)NC(=O)[C@@H](CC(C)C)NC(=O)[C@H](C)N(C)C(=O)[C@H](C(C)C)NC(=O)[C@H](Cc2ccc(-c3ccccc3)cc2)NC(=O)[C@H](C(C)C)NC(=O)[C@H](Cc2c[nH]c3ccccc23)NC(=O)[C@H](CC(=O)O)NC(=O)[C@H](Cc2ccc(O)cc2)NC(=O)[C@H](Cc2ccccc2)NC(=O)CSC[C@@H](C(=O)N[C@@H](C)C(N)=O)NC(=O)[C@H]([C@@H](C)O)NC(=O)[C@H](C(C)C)NC1=O [Compound 1502] ({CH2CO}-FYDWV[Bip]V[NMeA][dL]R[Nle]VTCA-NH2; thioether N-14) | 0.1 µM
CC(C)C[C@@H]1NC(=O)[C@H](Cc2c[nH]c3ccccc23)NC(=O)[C@H](CC(=O)O)NC(=O)[C@H](Cc2ccc(O)cc2)NC(=O)[C@H](Cc2ccncc2)NC(=O)CSC[C@@H](C(=O)N[C@@H](C)C(N)=O)NC(=O)[C@H](CO)NC(=O)[C@H](C(C)C)NC(=O)[C@H](CC(C)C)NC(=O)[C@H](CC(N)=O)NC(=O)[C@@H](C)NC(=O)[C@H](C)N(C)C(=O)[C@H](C(C)C)NC(=O)[C@H](Cc2ccc(-c3ccccc3)cc2)NC1=O [Compound 1730] ({CH2CO}-[4Pal]YDWL[Bip]V[NMeA][dA]NLVSCA-NH2; thioether N-14) | 0.01 µM
CC(C)C[C@@H]1NC(=O)[C@H](CCN)NC(=O)[C@@H](CC(C)C)NC(=O)[C@H](C)N(C)C(=O)[C@H](Cc2cnc[nH]2)NC(=O)[C@H](Cc2ccc(-c3ccccc3)cc2)NC(=O)[C@H](C(C)C)NC(=O)[C@H](Cc2c[nH]c3ccccc23)NC(=O)[C@H](CC(=O)O)NC(=O)[C@H](Cc2cccc(C(F)(F)F)c2)NC(=O)[C@H](CN)NC(=O)CSC[C@@H](C(=O)N[C@@H](C)C(N)=O)NC(=O)[C@H]([C@@H](C)O)NC(=O)[C@H](C(C)C)NC1=O [Compound 1434] ({CH2CO}-[Dap][Phe(3-CF3)]DWV[Bip]H[NMeA][dL][Dab]LVTCA-NH2; thioether N-14) | 0.05 µM
CCNC(=O)[C@H](CCN)NC(=O)[C@@H]1CSCC(=O)N[C@@H](Cc2ccc(OCC(=O)O)cc2)C(=O)N[C@@H](Cc2ccc(OCC(=O)O)cc2)C(=O)N[C@@H](CC(=O)O)C(=O)N[C@@H](Cc2cccc(C)c2)C(=O)N[C@@H](C(C)C)C(=O)N[C@@H](Cc2ccc(-c3ccccc3)cc2)C(=O)N[C@@H](Cc2ccc(O)cc2)C(=O)N(C)[C@@H](C)C(=O)N[C@H](CC(C)C)C(=O)N[C@@H](CCN)C(=O)N[C@@H](CC2CCCCC2)C(=O)N[C@@H](C(C)C)C(=O)N[C@@H](CCCN)C(=O)N1 [Compound 1870] ({CH2CO}-Y(Carboxymethyl)Y(Carboxymethyl)D[Phe(3-Me)]V[Bip]Y[NMeA][dL][Dab][Cha]V[Orn]C[Dab]-NHEt; thioether N-14) | 0.01 µM
CCNC(=O)[C@H](CCN)NC(=O)[C@@H]1CSCC(=O)N[C@@H](CCN)C(=O)N[C@@H](Cc2ccc(C(=O)O)cc2)C(=O)N[C@@H](CC(=O)O)C(=O)N[C@@H](Cc2c[nH]c3ccccc23)C(=O)N[C@@H](CC(C)C)C(=O)N[C@@H](Cc2ccc(-c3ccccc3)cc2)C(=O)N[C@@H]([C@@H](C)CC)C(=O)N(C)[C@@H](C)C(=O)N[C@H](CC(C)C)C(=O)N[C@@H](CCN)C(=O)N[C@@H](CC2CCCCC2)C(=O)N[C@@H](C(C)(C)O)C(=O)N[C@@H](CO)C(=O)N1 [Compound 1850] ({CH2CO}-[Dab][Phe(4-COOH)]DWL[Bip]I[NMeA][dL][Dab][Cha][Val(3-OH)]SC[Dab]-NHEt; thioether N-14) | 0.01 µM
CC[C@H](C)[C@@H]1NC(=O)[C@H](Cc2ccc(-c3ccccc3)cc2)NC(=O)[C@H](C(C)C)NC(=O)[C@H](Cc2c[nH]c3ccccc23)NC(=O)[C@H](CC(=O)O)NC(=O)[C@H](Cc2ccc(OCC(=O)O)cc2)NC(=O)[C@H](Cc2ccncc2)NC(=O)CSC[C@@H](C(=O)N[C@@H](C)C(N)=O)NC(=O)[C@H]([C@@H](C)O)NC(=O)[C@H](C(C)C)NC(=O)[C@H](CC(C)C)NC(=O)[C@H](CCN)NC(=O)[C@@H](CC(C)C)NC(=O)[C@H](C)N(C)C1=O [Compound 1413] ({CH2CO}-[4Pal]Y(Carboxymethyl)DWV[Bip]I[NMeA][dL][Dab]LVTCA-NH2; thioether N-14) | 0.03 µM
